# Patent publication US4066743A, “X-ray contrast agents” (Mallinckrodt, Inc., priority 1976, dated 1978)
# Like-named read-outs stand apart in the source and are kept apart here.
# Key:
# [1] = tested on: Swiss Albino mice; test: Acute Intravenous Toxicity Studies in Mice; type: in vivo; conditions: N-methylglucamine (meglumine) salt, i.v. lateral tail vein, 1 ml./min, 7 day observation, Litchfield and Wilcoxon
# Method: (§1) Toxicity evaluations by three different techniques were carried out on solutions of the N-methylglucamine salts of 3-acetamido-5-(4,4-bishydroxymethyl-2-oxazolinyl)-2,4,6-triiodobenzoic acid and 3-acetamido-5-(4-methyl-4-hydroxymethyl-2-oxazolinyl)-2,4,6-triiodobenzoicacid. The techniques utilized are outlined below.
# I. Acute Intravenous Toxicity Studies in Mice
# Swiss Albino mice (Charles River) were dosed in the lateral tail vein with solutions of the iodinated compounds containing 50.4% iodine in the case of 3-acetamido-5-(4,4-bishydroxymethyl-2-oxazolinyl)-2,4,6-triiodobenzoic acid and 28.2% iodine in the case of 3-acetamido-5-(4-methyl-4-hydroxymethyl-2-oxazolinyl)-2,4,6-triiodobenzoicacid, injected at the rate of 1 ml./min. […] The LD50 values were calculated by the method of Litchfield and Wilcoxon (J. of Pharmac. and Exptl. Therap. 96: 99-113, 1949).
# [2] = tested on: Swiss Albino mice; test: Intracerebral Toxicity in Mice; type: in vivo; conditions: N-methylglucamine (meglumine) salt, 7 day observation, Litchfield and Wilcoxon
# Method: as §1
# II. Intracerebral Toxicity in Mice
# Swiss Albino mice (Charles River) were used. Fixed volumes of solutions of various concentrations of the iodinated compounds were injected intracerebrally via a 27 gauge needle, (1/4 inch length) according to the method of Haley, et al. (Br. J. of Pharmac. 12:12-15, 1957). The animals were observed immediately after injections and daily throughout a 7 day observation period. The LD50 values were calculated by the method of Litchfield and Wilcoxon (J. of Pharmac. and Exptl. Therap. 96:99-113, (1949)).
# [3] = tested on: Sprague Dawley rats; test: Intracisternal Toxicity in Rats; type: in vivo; conditions: N-methylglucamine (meglumine) salt, 2 day observation, Litchfield and Wilcoxon
# Method: as §1
# III. Intracisternal Toxicity in Rats
# Sprague Dawley (Carworth) rats were used. The method used was a variation of the procedure outlined by Melartin et al. (Invest. Rad. 5:13-21, 1970). After dosing, the animals were housed individually, and observed for immediate reactions and periodically for a 2 day observation period. The LD50 values were calculated according to the method of Litchfield and Wilcoxon, (J. of Pharmac. and Exptl. Therap. 96:[…], 1949).
# [4] = water solubility of the sodium salt; type: physicochemical
# [5] = read-out: water solubility of the sodium salt
Structure (SMILES),"LD50 of Meglumine Salt, I.V. (Mice) [1]","LD50 of Meglumine Salt, Intracerebral (Mice) [2]","LD50 of Meglumine Salt, Intracisternal (Rats) [3]","solubility ([4]; w/v not given, read-out: solubility of the sodium salt)","solubility [4, 5]"
"CC(=O)Nc1c(I)c(C(=O)O)c(I)c(C2=NC(C)(CO)CO2)c1I (stereo not shown) [Example 8, 3-Acetamido-5-(4-methyl-4-hydroxymethyl-2-oxazolinyl)-2,4,6-triiodobenzoic Acid]","5,500 mg. contained iodine/kg. anima",280 mg. contained iodine/kg. anima,28 mg. contained iodine/kg. anima,738 mg/mL,
"CC(=O)Nc1c(I)c(C(=O)O)c(I)c(C2=NC(CO)(CO)CO2)c1I [Example 4, 3-Acetamido-5-(4,4-bis(hydroxymethyl)-2-oxazolinyl)-2,4,6-triiodobenzoic Acid]","5,522 mg. contained iodine/kg. anima",485 mg. contained iodine/kg. anima,55 mg. contained iodine/kg. anima,,958 mg/mL
"Nc1c(I)c(C(=O)O)c(I)c(C(=O)NC(CO)(CO)CO)c1I [Example 3, 5-Amino-N-[tris(hydroxymethyl)methyl]-2,4,6-triiodoisophthalamic Acid]",,,,,~800 mg/mL
"CC(CO)(CO)NC(=O)c1c(I)c(N)c(I)c(C(=O)O)c1I [Example 6, 5-Amino-N-[2-(1,3-dihydroxy-2-methyl)propyl]-2,4,6-triiodoisophthalamic Acid]",,,,,~830 mg/mL
